Patent US9963444B2, “N-acylethanolamine hydrolyzing acid amidase (NAAA) inhibitors and their use thereof” (Northeastern University, priority 2014, dated 2018)
Read-outs that look alike come from different tables or passages of the source.

Target: hNAAA (Homo sapiens (Human), UniProt Q02083)
Experiment: Fluorescence-based NAAA inhibition assay with fluorogenic substrate PAMCA;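 also: compound preincubated 15 min at room temperature with hNAAA, then PAMCA added at 5 µM, reacted 120 min at 37 °C, AMC release read by fluorescence (ex 360, em 460 nm)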
[1] = read-out: NAAA Inhibition IC50 μM, purified hNAAA, PAMCA 5 μM, pH 4.5

Sequence of hNAAA (Q02083 29-125): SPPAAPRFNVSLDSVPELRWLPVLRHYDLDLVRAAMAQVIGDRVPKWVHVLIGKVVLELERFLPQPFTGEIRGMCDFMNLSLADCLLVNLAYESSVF
Sequence of hNAAA (Q02083 126-359): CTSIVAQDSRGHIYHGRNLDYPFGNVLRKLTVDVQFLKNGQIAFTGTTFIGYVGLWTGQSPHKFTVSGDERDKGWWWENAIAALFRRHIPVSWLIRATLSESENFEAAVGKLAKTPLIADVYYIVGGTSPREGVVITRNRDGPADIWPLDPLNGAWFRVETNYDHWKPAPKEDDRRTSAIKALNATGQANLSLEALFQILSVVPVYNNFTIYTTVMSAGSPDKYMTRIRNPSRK
Description: For three point concentration inhibition assays with hNAAA the following procedure is used. […] These samples are allowed to incubate for 15 min at room temperature and then 10 μL of a PAMCA stock solution in DMSO (final PAMCA concentration [5 μM]) was added. After 5 minutes of agitation on a shaking plate, the reaction is allowed to proceed at 37° C. for 120 minutes, with fluorescence readings taken every 10 minutes at a wavelength of 460 nm (using an excitation wavelength of 360 nm) on a Synergy HT Plate Reader using Gen5 software from Bio-Tek. The enzyme activity is calculated by converting the relative fluorescence units to AMC formed, using a standard curve of AMC. […] The assay procedure used is the same as the three point assay. […] After 5 minutes of agitation on a shaking plate, the reaction is allowed to proceed at 37° C. for 120 minutes Inhibition constants are calculated using pro Fit software (Quantum Soft, Uetikon am See, Switzerland) and a Levenberg-Marquardt algorithm.
For three point concentration inhibition assays with hNAAA the following procedure is used. […] These samples are allowed to incubate for 15 min at room temperature and then 10 μL of a PAMCA stock solution in DMSO (final PAMCA concentration [5 μM]) was added. After 5 minutes of agitation on a shaking plate, the reaction is allowed to proceed at 37° C. for 120 minutes, with fluorescence readings taken every 10 minutes at a wavelength of 460 nm (using an excitation wavelength of 360 nm) on a Synergy HT Plate Reader using Gen5 software from Bio-Tek. The enzyme activity is calculated by converting the relative fluorescence units to AMC formed, using a standard curve of AMC.
The assay procedure used is the same as the three point assay. […] After 5 minutes of agitation on a shaking plate, the reaction is allowed to proceed at 37° C. for 120 minutes. Inhibition constants are calculated using pro Fit software (Quantum Soft, Uetikon am See, Switzerland) and a Levenberg-Marquardt algorithm.

Row | Structure (SMILES) | IC50 [µM] | IC50 [1] [µM]
1 | CN(Cc1ccc(-c2ccccc2)cc1)[C@H]1C[C@@H](N=C=S)C1 [Example 54, (1S,3S)—N-([1,1′-biphenyl]-4-ylmethyl)-3-isothiocyanato-N-methylcyclobutan-1-amine] | > 1 | –
2 | CN(Cc1ccc(-c2ccc3c(c2)OCO3)cc1)C1CC(N=C=S)C1 [Example 55, (1R,3R)—N-(4-(benzo[d][1,3]dioxol-5-yl)benzyl)-3-isothiocyanato-N-methylcyclobutan-1-amine] | – | > 1
3 | CCN(Cc1ccc(-c2ccc3c(c2)OCO3)cc1)C1CC(N=C=S)C1 [Example 56, (1R,3R)—N-(4-(benzo[d][1,3]dioxol-5-yl)benzyl)-N-ethyl-3-isothiocyanatocyclobutan-1-amine] | – | 0.11 to 1
4 | S=C=NC[C@H]1C[C@@H](OCc2ccc(-c3ccccc3)cc2)C1 [Example 57, 4-(((1S,3S)-3-(isothiocyanatomethyl)cyclobutoxy)methyl)-1,1′-biphenyl] | 0.11 to 1 | –
5 | FC(F)(F)c1cccc(-c2ccc(COC3CCCC(N=C=S)C3)cc2)c1 (stereo not shown) [Example 58, 4′-(((3-Isothiocyanatocyclohexyl)oxy)methyl)-3-(trifluoromethyl)-1,1′-biphenyl] | – | > 1
6 | COc1ccc(-c2ccc(COC3CCC(N=C=S)CC3)cc2)cc1F (stereo not shown) [Example 59, 3-Fluoro-4′-((((1r,4r)-4-isothiocyanatocyclohexyl)oxy)methyl)-4-methoxy-1,1′-biphenyl] | – | 0.11 to 1
7 | S=C=N[C@@H]1CC[C@@H](OCc2ccc(Br)cc2)C1 [Example 60, 1-Bromo-4-((((1R,3R)-3-isothiocyanatocyclopentyl)oxy)methyl)benzene] | – | > 1
8 | FC(F)(F)c1cccc(-c2ccc(CO[C@H]3Cc4ccccc4[C@H]3N=C=S)cc2)c1 [Example 61, (1R,2S)-1-isothiocyanato-2-((3′-(trifluoromethyl)-[1,1′-biphenyl]-4-yl)methoxy)-2,3-dihydro-1H-indene] | – | > 1
9 | COc1ccc(-c2ccc(CO[C@@H]3Cc4ccccc4[C@@H]3N=C=S)cc2)cc1F [Example 62, (1S,2R)-2-((3′-fluoro-4′-methoxy-[1,1′-biphenyl]-4-yl)methoxy)-1-isothiocyanato-2,3-dihydro-1H-indene] | – | > 1
10 | COc1ccc(-c2ccc(COC3CN(C#N)C3)cc2)cc1 [Example 63, 3-((4′-Methoxy-[1,1′-biphenyl]-4-yl)methoxy)azetidine-1-carbonitrile] | 0.01 to 0.1 | –
11 | N#CN1CC(OCc2ccc(-c3ccccc3)cc2)C1 [Example 64, 3-([1,1′-Biphenyl]-4-ylmethoxy)azetidine-1-carbonitrile] | 0.01 to 0.1 | –
12 | COc1ccc(-c2ccc(COC3CN(C#N)C3)cc2)c(OC)c1 [Example 65, 3-((2′,4′-Dimethoxy-[1,1′-biphenyl]-4-yl)methoxy)azetidine-1-carbonitrile] | 0.01 to 0.1 | –
13 | N#CN1CC(OCc2cccc(-c3ccccc3)c2)C1 [Example 66, 3-([1,1′-Biphenyl]-3-ylmethoxy)azetidine-1-carbonitrile] | 0.01 to 0.1 | –
14 | COc1cccc(-c2ccc(COC3CN(C#N)C3)cc2)c1 [Example 67, 3-((3′-Methoxy-[1,1′-biphenyl]-4-yl)methoxy)azetidine-1-carbonitrile] | 0.01 to 0.1 | –
15 | COc1ccc(OC)c(-c2ccc(COC3CN(C#N)C3)cc2)c1 [Example 68, 3-((2′,5′-Dimethoxy-[1,1′-biphenyl]-4-yl)methoxy)azetidine-1-carbonitrile] | 0.01 to 0.1 | –
16 | COc1cccc(-c2ccc(COC3CN(C#N)C3)cc2)c1OC [Example 69, 3-((2′,3′-Dimethoxy-[1,1′-biphenyl]-4-yl)methoxy)azetidine-1-carbonitrile] | 0.01 to 0.1 | –
17 | N#CN1CC(OCc2ccc(-c3cccc(C(F)(F)F)c3)cc2)C1 [Example 70, 3-((3′-(Trifluoromethyl)-[1,1′-biphenyl]-4-yl)methoxy)azetidine-1-carbonitrile] | 0.01 to 0.1 | –
18 | N#CN1CC(OCc2ccc(-c3cc(C(F)(F)F)cc(C(F)(F)F)c3)cc2)C1 [Example 71, 3-((3′,5′-Bis(trifluoromethyl)-[1,1′-biphenyl]-4-yl)methoxy)azetidine-1-carbonitrile] | 0.01 to 0.1 | –
19 | N#CN1CC(OCc2ccc(-c3cccnc3)cc2)C1 [Example 72, 3-((4-(Pyridin-3-yl)benzyl)oxy)azetidine-1-carbonitrile] | 0.01 to 0.1 | –
20 | COc1ccc(-c2ccc(COC3CN(C#N)C3)cc2)cn1 [Example 73, 3-((4-(6-Methoxypyridin-3-yl)benzyl)oxy)azetidine-1-carbonitrile] | 0.01 to 0.1 | –
21 | COc1ncccc1-c1ccc(COC2CN(C#N)C2)cc1 [Example 74, 3-((4-(2-Methoxypyridin-3-yl)benzyl)oxy)azetidine-1-carbonitrile] | 0.01 to 0.1 | –
22 | COc1ccccc1-c1ccc(COC2CN(C#N)C2)cc1 [Example 75, 3-((2′-Methoxy-[1,1′-biphenyl]-4-yl)methoxy)azetidine-1-carbonitrile] | 0.01 to 0.1 | –
23 | Cc1ccc(-c2ccc(COC3CN(C#N)C3)cc2)cc1 [Example 76, 3-((4′-Methyl-[1,1′-biphenyl]-4-yl)methoxy)azetidine-1-carbonitrile] | 0.01 to 0.1 | –

Row | Structure (SMILES) | IC50 [µM] | IC50 [1] [µM]
24 | N#CN1CC(OCc2ccc(-c3ccc(F)cc3)cc2)C1 [Example 77, 3-((4′-Fluoro-[1,1′-biphenyl]-4-yl)methoxy)azetidine-1-carbonitrile] | 0.01 to 0.1 | –
25 | COc1cccc(-c2ccc(COC3CN(C#N)C3)c(F)c2)c1 [Example 78, 3-((3-Fluoro-3′-methoxy-[1,1′-biphenyl]-4-yl)methoxy)azetidine-1-carbonitrile] | 0.01 to 0.1 | –
26 | COc1cccc(-c2ccc(COC3CN(C#N)C3)c(C(F)(F)F)c2)c1 [Example 79, 3-((3′-Methoxy-3-(trifluoromethyl)-[1,1′-biphenyl]-4-yl)methoxy)azetidine-1-carbonitrile] | 0.01 to 0.1 | –
27 | COc1cccc(-c2ccc(COC3CN(C#N)C3)c(OC)c2)c1 [Example 80, 3-((3,3′-Dimethoxy-[1,1′-biphenyl]-4-yl)methoxy)azetidine-1-carbonitrile] | 0.01 to 0.1 | –
28 | N#CN1CC(OCc2ccc(Oc3ccccc3)cc2)C1 [Example 81, 3-((4-Phenoxybenzyl)oxy)azetidine-1-carbonitrile] | 0.01 to 0.1 | –
29 | COc1cccc(-c2ccc(C3(COC4CN(C#N)C4)CC3)cc2)c1 [Example 82, 3-((1-(3′-Methoxy-[1,1′-biphenyl]-4-yl)cyclopropyl)methoxy)azetidine-1-carbonitrile] | 0.01 to 0.1 | –
30 | COc1cccc(OC)c1-c1ccc(COC2CN(C#N)C2)cc1 [Example 83, 3-((2′,6′-Dimethoxy-[1,1′-biphenyl]-4-yl)methoxy)azetidine-1-carbonitrile] | 0.01 to 0.1 | –
31 | N#CN1CC(OCc2ccc(-c3ccc4c(c3)OCCO4)cc2)C1 [Example 84, 3-((4-(2,3-Dihydrobenzo[b][1,4]dioxin-6-yl)benzyl)oxy)azetidine-1-carbonitrile] | 0.01 to 0.1 | –
32 | N#CN1CC(OCc2ccc(-c3cccc(OCc4ccccc4)c3)cc2)C1 [Example 85, 3-((3′-(Benzyloxy)-[1,1′-biphenyl]-4-yl)methoxy)azetidine-1-carbonitrile] | 0.01 to 0.1 | –
33 | N#CN1CC(COCc2ccc(-c3ccccc3)cc2)C1 [Example 86, 3-(([1,1′-Biphenyl]-4-ylmethoxy)methyl)azetidine-1-carbonitrile] | 0.01 to 0.1 | –
34 | N#CN1CC(OCc2ccc(Oc3ccccc3)cc2-c2ccccc2)C1 [Example 87, 3-((5-Phenoxy-[1,1′-biphenyl]-2-yl)methoxy)azetidine-1-carbonitrile] | 0.01 to 0.1 | –
35 | COc1ccccc1-c1cc(Oc2ccccc2)ccc1COC1CN(C#N)C1 [Example 88, 3-((2′-Methoxy-5-phenoxy-[1,1′-biphenyl]-2-yl)methoxy)azetidine-1-carbonitrile] | 0.01 to 0.1 | –
36 | COc1cccc(-c2cc(Oc3ccccc3)ccc2COC2CN(C#N)C2)c1 [Example 89, 3-((3′-Methoxy-5-phenoxy-[1,1′-biphenyl]-2-yl)methoxy)azetidine-1-carbonitrile] | 0.01 to 0.1 | –
37 | COc1ccc(-c2cc(Oc3ccccc3)ccc2COC2CN(C#N)C2)cc1 [Example 90, 3-((4′-Methoxy-5-phenoxy-[1,1′-biphenyl]-2-yl)methoxy)azetidine-1-carbonitrile] | 0.01 to 0.1 | –
38 | COc1ncccc1-c1cc(Oc2ccccc2)ccc1COC1CN(C#N)C1 [Example 91, 3-((2-(2-Methoxypyridin-3-yl)-4-phenoxybenzyl)oxy)azetidine-1-carbonitrile] | 0.01 to 0.1 | –
39 | N#Cc1ccc(-c2cc(Oc3ccccc3)ccc2COC2CN(C#N)C2)cc1 [Example 92, 3-((4′-Cyano-5-phenoxy-[1,1′-biphenyl]-2-yl)methoxy)azetidine-1-carbonitrile] | 0.01 to 0.1 | –
40 | N#Cc1ccccc1-c1cc(Oc2ccccc2)ccc1COC1CN(C#N)C1 [Example 93, 3-((2′-Cyano-5-phenoxy-[1,1′-biphenyl]-2-yl)methoxy)azetidine-1-carbonitrile] | 0.01 to 0.1 | –
41 | N#CN1CC(OCc2ccc(OC(c3ccc(F)cc3)c3ccc(F)cc3)cc2Br)C1 [Example 94, 3-((4-(Bis(4-fluorophenyl)methoxy)-2-bromobenzyl)oxy)azetidine-1-carbonitrile] | 0.01 to 0.1 | –
42 | COc1cccc(-c2ccc(COC3(C)CN(C#N)C3)cc2)c1 [Example 95, 3-((3′-Methoxy-[1,1′-biphenyl]-4-yl)methoxy)-3-methylazetidine-1-carbonitrile] | 0.01 to 0.1 | –
43 | COc1cccc(-c2ccc(COC3(c4ccccc4)CN(C#N)C3)cc2)c1 [Example 96, 3-((3′-Methoxy-[1,1′-biphenyl]-4-yl)methoxy)-3-phenylazetidine-1-carbonitrile] | 0.01 to 0.1 | –
44 | N#CN1CC(OCc2ccc(-c3ccc4c(c3)OCO4)cc2)(c2ccccc2)C1 [Example 97, 3-((4-(Benzo[d][1,3]dioxol-5-yl)benzyl)oxy)-3-phenylazetidine-1-carbonitrile] | 0.01 to 0.1 | –
45 | N#CN1CC(OCc2ccc(-c3ccc4c(c3)OCCO4)cc2)(c2ccccc2)C1 [Example 98, 3-((4-(2,3-Dihydrobenzo[b][1,4]dioxin-6-yl)benzyl)oxy)-3-phenylazetidine-1-carbonitrile] | 0.01 to 0.1 | –
46 | N#CN1CC(OC(c2ccccc2)c2ccc(Br)cc2)C1 (stereo not shown) [Example 99, 3-((4-Bromophenyl)(phenyl)methoxy)azetidine-1-carbonitrile] | 0.01 to 0.1 | –
